Experimental data from the supplement of paper PMC10307832.

What was measured:
Assay in all cases: relative viability (nuclei count vs DMSO), 5 days (fraction); higher = more cells survive
[1] = compound: CC[C@@H]1C(=O)N(C)c2cnc(Nc3ccc(C(=O)NC4CCN(C)CC4)cc3OC)nc2N1C1CCCC1 [BI-2536] + Cc1cc(Nc2cc(N3CCN(C)CC3)nc(Sc3ccc(NC(=O)C4CC4)cc3)n2)n[nH]1 [Tozasertib] (partner 0.1 µM)
Method in brief: (§1)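 One day after seeding in 1536-well plates, lung cancer cell lines were dosed by pin tool. Dosing was either single-drug or a fixed anchor-drug dose plus five library-drug doses (not always all listed) in √10 steps. After 5 days, nuclei were stained in one fix-and-stain step and counted on 4× images, and relative viability is the nuclei count of treated wells over that of vehicle wells, given as the median of duplicate plates.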

[2] = compound: CC[C@@H]1C(=O)N(C)c2cnc(Nc3ccc(C(=O)NC4CCN(C)CC4)cc3OC)nc2N1C1CCCC1 [BI-2536] + O=C(c1cc(Cc2n[nH]c(=O)c3ccccc23)ccc1F)N1CCN(C(=O)C2CC2)CC1 [Olaparib] (partner 8 µM)
Method in brief: as §1

[3] = compound: CC[C@@H]1C(=O)N(C)c2cnc(Nc3ccc(C(=O)NC4CCN(C)CC4)cc3OC)nc2N1C1CCCC1 [BI-2536] + Cc1nc(NC(=O)N2CCC[C@H]2C(N)=O)sc1-c1ccnc(C(C)(C)C(F)(F)F)c1 [Alpelisib] (partner 2 µM)
Method in brief: as §1

[4] = compound: CC1CC(=O)N(C2=CN=C(N=C2N1C3CCCC3)NC4=C(C=C(C=C4)C(=O)NC5CCN(CC5)C)OC)C [NPK76-II-72-1] + CS(=O)(=O)CCNCc1ccc(-c2ccc3ncnc(Nc4ccc(OCc5cccc(F)c5)c(Cl)c4)c3c2)o1 [Lapatinib] (partner 2 µM)
Method in brief: as §1

Cell Line	relative viability ([1]; first compound 0.01 µM)	relative viability ([1]; first compound 0.03162 µM)	relative viability ([1]; first compound 0.1 µM)	relative viability ([1]; first compound 0.3162 µM)	relative viability ([1]; first compound 1 µM)	relative viability ([2]; first compound 0.01 µM)	relative viability ([2]; first compound 0.03162 µM)	relative viability ([2]; first compound 0.1 µM)	relative viability ([2]; first compound 0.3162 µM)	relative viability ([2]; first compound 1 µM)	relative viability ([3]; first compound 0.01 µM)	relative viability ([3]; first compound 0.03162 µM)	relative viability ([3]; first compound 0.1 µM)	relative viability ([3]; first compound 0.3162 µM)	relative viability ([3]; first compound 1 µM)	relative viability ([4]; first compound 0.01 µM)	relative viability ([4]; first compound 0.03162 µM)	relative viability ([4]; first compound 0.1 µM)	relative viability ([4]; first compound 0.3162 µM)	relative viability ([4]; first compound 1 µM)
HCC-44	0.967	0.333	0.262	0.143	0.216	1.05	1	0.952	0.378	0.33	0.775	0.705	0.423	0.0667	0.0737	0.983	0.991	0.935	0.937	1
HCC-78	0.405	0.304	0.325	0.253	0.259	0.783	0.904	0.774	0.47	0.204	0.357	0.295	0.379	0.211	0.164	–	0.642	0.706	–	1.01
HCC-366	0.119	0.169	0.115	0.038	0.0412	0.323	0.368	0.21	0.0235	0.0223	0.469	0.344	0.273	0.0093	0.0141	1.04	1.08	1.01	1.14	1.08
HCC-827	0.45	0.414	0.428	0.376	0.308	0.693	0.611	0.531	0.214	0.194	0.934	1.03	0.867	0.282	0.243	0.194	0.211	0.173	0.171	0.224
HOP-62	0.337	0.424	0.29	0.204	0.219	–	0.309	0.191	0.101	0.089	1.04	1.06	0.922	0.176	0.104	1.08	0.958	1.02	0.911	1.22
IA-LM	–	–	–	–	–	0.763	0.752	0.402	0.101	0.102	0.729	0.652	0.588	0.0728	0.0917	0.786	0.877	0.804	0.785	1.03
LC-2-ad	0.412	0.278	0.279	0.318	0.383	0.705	0.621	0.24	0.205	0.205	0.521	0.348	0.0935	0.0735	0.123	0.916	1.02	0.976	1.04	1.06
LCLC-97TM1	0.236	0.184	0.176	0.182	0.178	0.463	0.292	0.233	0.0868	0.0916	0.197	0.219	0.214	0.129	0.141	–	0.887	0.859	0.739	1.32
